Results as given in US4713376A, “Dementia-improving and therapeutic agents” (Toyama Chemical Co., Ltd., priority 1985, dated 1987).

Key:
[1] = type: physicochemical; details: 10 days, relative humidity 55%; for Appearance: room temperature (30° C.); for Decomposition percentage: hydroxylamine method, 30° C.
Protocol: (§1) Next, among the present compounds [I], α-acetoxy-α-methylaceticacid trimethylammonioethyl ester toluene-4-sulfonate (hereinafter referred to as ALT) and bis(α-acetoxy-α-methylacetic acid trimethylammonioethyl ester) naphthalene-1,5-disulfonate (general name: aclatonium napadisilate) were […] for mouse acute toxicity by intraperitoneal injection as well as for hygroscopicity and stability.
(§2) Stored for 10 days at room temperature (30° C.) at a relative
*2 Measured in accordance with the hydroxylamine method for ester (Jikken
Kagaku Koza, Vol. 24 Seibutsu Kagaku II, p 253 to 255, Maruzen).
Decomposition percentage (%) = [1 - (absorbance of test
sample)/(absorbance of standard solution)] × 100

[2] = Hygroscopicity on storage; type: physicochemical; details: (Increased weight)/(Original weight) × 100; 10 days, 30° C., relative humidity 55%
Protocol: as §1, §2
*1 Hygroscopicity (%) = (Increased weight)/(Original weight) × 100

[3] = Mouse acute toxicity by intraperitoneal injection; details: in vivo, ip
Excerpt: as §1

dementia = test: Neuropsychiatric symptoms accompanying dementia and cognitive function, summary of clinical cases; type: in vivo, patients
Protocol: (§3) The degree of dementia was diagnosed in patients on the basis of DSM-III criteria with reference to the neuropsychiatric symptoms and findings of the CT scan of the head regions.
(§4) The overall improvement degree of the present drug was evaluated from the neuropsychiatric symptoms, scores of activity of daily living and Hasegawa's rating scales.

[4] = Transference into brain and stimulation of cerebral metabolism; details: in vivo
Alzheimer's disease = test: Clinical case, overall improvement degree and neuropsychiatric symptoms, Alzheimer's disease; type: in vivo, patients
Protocol: as §3, §4
Case two a person, Alzheimer's disease (Overall severity: Moderate degree)
They became occasionally aware of slight change of character from 8 years ago, and they lived without specific changes, but they became spiritless and not to express their feeling from 3 years ago. At the admission, they could not work entirely and was spiritless, and had contact disturbance with other patients, and decrease of memory power and judgement power were noted. […] The atrophy of anterior lobe was remarkably noted at the finding of CT scan of head regions at the admission.

[5] = tested on: senile dementia of Alzheimer's type; test: Clinical cases, overall improvement degree and neuropsychiatric symptoms, senile dementia of Alzheimer's type; type: in vivo, patients
Protocol: as §3, §4
Case three senile dementia of Alzheimer's type (Overall severity: Marked high degree)
They began to have a forgetfulness from approx. 4 years ago, and became spiritless and became unable to work, and became not to express their feeling, and had wanderling impulsion. The cerebral atrophy was generally noted by the finding of CT scan of head regions at the admission.
Case four senile dementia of Alzheimer's type (Overall severity: Marked high degree)
They had occasionally a forgetfulness from approx. 10 years ago, and became unable to do agricultural work from approx. 4 years ago. The diffuse cerebral atrophy was noted by the finding of CT scan of head regions at the admission.
Case five senile dementia of Alzheimer's type (Overall severity: Moderate degree)
They began to have a forgetfulness from approx. 2 years ago, and became unable to do household affairs from 1 year ago, and became unable to distinguish their familial faces. The cerebral atrophy and enlargement of cerebral ventricle were noted by the finding of CT scan of head regions at the admission. The treatment was changed to the administration of 300 mg/day of the present drug because the efficacy was ineffective with other cerebral metabolic improvement drugs and cerebral-vasodilators.
Case one senile dementia of Alzheimer's type (overall severity: Moderate degree)
They began to have a forgetfulness and spiritlessness after operation of fracture of neck of femur from 10 years ago. The disorientation was strongly noted from 2-3 years ago. The cerebral atrophy and enlargement of cerebral ventricle were noted by the finding of CT scan of head regions at the admission. The efficacy was ineffective with other various drugs than the present drug.

patients = test: Side effects in the clinical cases; type: in vivo; details: all of the above clinical cases

Q: Which results are given for CC(=O)OC(C)C(=O)OCC[N+](C)(C)C.Cc1ccc(S(=O)(=O)[O-])cc1 (stereo not drawn) [ALT, α-acetoxy-α-methylaceticacid trimethylammonioethyl ester toluene-4-sulfonate]?
A: Appearance [1]: No change; Decomposition percentage [1]: 0.5%; Hygroscopicity [2]: 0.6%; LD50 [3]: 657 mg/kg

Q: Which Appearance [1] does the source give for CC(=O)OC(C)C(=O)OCC[N+](C)(C)C (stereo not drawn) [Aclatonium napadisilate, bis(α-acetoxy-α-methylacetic acid trimethylammonioethyl ester) naphthalene-1,5-disulfonate] here?
A: No change

Q: And the Decomposition percentage [1]?
A: 0.2%

Q: What about the Hygroscopicity [2] of the same compound?
A: 0.1%

Q: What about the “effect on cognitive function” value (dementia; clinical cases) of the same compound?
A: has not been confirmed at this time

Q: What about the “improvement of neuropsychiatric symptoms accompanying dementia” value (dementia; clinical cases) of the same compound?
A: effective

Q: And the clinical effect (dementia; human, in vivo)?
A: confirmed

Q: And the “effect on severe dementia” value (dementia; human, in vivo)?
A: confirmed

Q: What about the cerebral metabolism [4] of the same compound?
A: stimulated

Q: What about the transference into brain [4] of the same compound?
A: found

Q: And the defecation (Alzheimer's disease; Clinical Case 5)?
A: defecation became smooth

Q: What about the “movement frequency and spontaneousness” value (Alzheimer's disease; Clinical Case 5, 4th week) of the same compound?
A: increase of movement frequency and improvement of decrease of spontaneousness

Q: And the overall improvement degree (Alzheimer's disease; Clinical Case 5, Moderate degree)?
A: improvement

Q: What about the “neuropsychiatric symptoms and activity of daily living” value ([5]; Clinical Case 1, 300 mg/day, 2nd week) of the same compound?
A: they could gait to outside of room at the 2nd week, and their movement behavior was improved, and spontaneousness increased and feeling became clear

Q: And the overall improvement degree ([5]; Clinical Case 1, Marked high degree, 300 mg/day)?
A: improvement

Q: What about the “neuropsychiatric symptoms (spontaneousness, conversation)” value ([5]; Clinical Case 2) of the same compound?
A: spontaneousness increased, and conversation with other patients increased, and they had favorable communication and became fortunate

Q: What about the overall improvement degree ([5]; Clinical Case 2, Marked high degree) of the same compound?
A: slight improvement

Q: And the “decrease of spontaneousness and disturbance of emotion” value ([5]; Clinical Case 3, 300 mg/day)?
A: improved

Q: What about the intellectual function ([5]; Clinical Case 3, 300 mg/day) of the same compound?
A: No changes

Q: And the “activity of daily living and expression” value ([5]; Clinical Case 3, 300 mg/day, approx. 2nd week after administration)?
A: they became able to sit and gait, and eat food by themself and expression became clear

Q: What about the overall improvement degree ([5]; Clinical Case 3, Moderate degree, 300 mg/day) of the same compound?
A: slight improvement

Q: What about the “conversation frequency and activity of daily living” value ([5]; Clinical Case 4, 300 mg/day, from the 2nd week) of the same compound?
A: their conversation frequency with other patients increased and they became able to go out from their room and occasionally go to toilet

Q: And the overall improvement degree ([5]; Clinical Case 4, Moderate degree, 300 mg/day)?
A: slight improvement

Q: And the LD50 [3]?
A: 636 mg/kg

Q: And the side effect (patients)?
A: no side effect
